Ki data for three compounds are collected here from PMC3027604, “Spermine oxidase (SMO) activity in breast tumor tissues and biochemical analysis of the anticancer spermine analogues BENSpm and CPENSpm” (2010).

Assay [1] has as its target T1, spermine oxidase (mSMO) (Mus musculus, UniProt Q99K82).
T1 construct: gene Smox; Murine recombinant SMO
The assay is described as follows: enzyme inhibition of recombinant mSMO with Spm as substrate, Dixon plot. The class given is biochemical.

In assay [2] the target is T1, spermine oxidase (mSMO). The assay is described as follows: enzyme inhibition of mSMO, Ki in Table […] (reference inhibitor; assay not detailed in Methods). As to conditions: cited from earlier work. It counts as biochemical.

T1 sequence (Q99K82 whole entry): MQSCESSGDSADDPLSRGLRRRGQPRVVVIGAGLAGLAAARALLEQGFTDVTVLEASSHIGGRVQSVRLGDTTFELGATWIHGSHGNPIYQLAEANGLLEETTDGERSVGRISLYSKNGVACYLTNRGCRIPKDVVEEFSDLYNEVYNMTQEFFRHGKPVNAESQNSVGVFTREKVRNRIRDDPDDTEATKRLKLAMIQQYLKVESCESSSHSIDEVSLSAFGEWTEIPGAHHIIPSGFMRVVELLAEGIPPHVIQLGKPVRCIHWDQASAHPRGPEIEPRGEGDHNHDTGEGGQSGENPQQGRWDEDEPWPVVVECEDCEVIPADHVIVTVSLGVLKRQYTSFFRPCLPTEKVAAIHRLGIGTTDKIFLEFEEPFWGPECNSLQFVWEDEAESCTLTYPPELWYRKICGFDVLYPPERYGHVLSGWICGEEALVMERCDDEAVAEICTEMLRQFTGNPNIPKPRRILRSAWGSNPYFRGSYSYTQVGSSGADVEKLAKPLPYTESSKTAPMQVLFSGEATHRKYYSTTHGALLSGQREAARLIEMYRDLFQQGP

For `CCNCCCNCCCNCCCNCC` [BENSpm], the inhibition constant Ki – broadly, the equilibrium dissociation constant of an inhibitor or competing ligand from its target – on spermine oxidase (mSMO) [1] came out at 380 µM.
For the compound `CCNCCCNCCCNCCCNCC1CC1` [CPENSpm, N^1-ethyl-N^11-(cyclopropyl)-methyl-4,8-diazaundecane], the inhibition constant (Ki) at spermine oxidase (mSMO) [1] was found to be 85 µM.
As to `C=C=CCNCCCCNCC=C=C` [MDL72527, N^1, N^4-bis(2,3-butadienyl)-1,4butanediamine], at spermine oxidase (mSMO) [2], the inhibition constant Ki was 63 µM.
